One block for each molecule: values may come before it.
Experiments:
[1] = biological target: rodent Aβ42 (Mus musculus; Rattus norvegicus); assay: cell-based or functional assay
hippocampal slices [2] = assay: Paired pulse facilitation (PPF) at the CA3-CA1 connection; assay type: cell-based, mouse
hippocampal slices [3] = test system: hippocampal slices

contextual fear conditioning, freezing 24 hrs after training, m3.2 mAb 1 µg in 1 µl into dorsal hippocampi (% of freezing) [1]: 16.8
Molecule: anti-rodent Aβ monoclonal antibody m3.2

Molecule: CNC1(C)C2CCC(C2)C1(C)C (centres unmarked) [MCL, mecamylamine]
PPF (hippocampal slices [2]; 20 ms interval, MCL 3 μM for 20 min plus Aβ42): 138.18±22.01 % of facilitation | PPF (hippocampal slices [2]; 30 ms interval, MCL 3 μM for 20 min plus Aβ42): 158.58±16.79 % of facilitation | PPF (hippocampal slices [2]; 40 ms interval, MCL 3 μM for 20 min plus Aβ42): 176.71±17.51 % of facilitation | PPF (hippocampal slices [2]; 50 ms interval, MCL 3 μM for 20 min plus Aβ42): 197.49±22.30 % of facilitation | PPF (hippocampal slices [2]; MCL 3 μM for 20 min alone): 214.53±20.85% | PTP (hippocampal slices [3]): does not affect PTP

Molecule: α-bungarotoxin [α-BgTx]
PTP (hippocampal slices [3]): does not affect PTP
